Starred links: 1 amine or outer side, 2 acyl side, 3 side chain; linkers in the order of their positions; H or OH if unused. Positions of bridges follow the written chain, without caps; N, C: chain ends. Non-standard residues stand in square brackets, D forms with d. Residues, ends and D or L forms follow the SMILES beside them. Tyrψ(CN4)Ala = C[C@@H](C(=O)[*:2])n1nnnc1[C@H](Cc1ccc(O)cc1)N[*:1]; X1 = CCCC[C@@H](C(=O)[*:2])n1nnnc1[C@H](Cc1c[nH]c2ccccc12)N[*:1]; X3 = O=C(C[C@@H](CO)C(=O)[*:2])[C@H](Cc1c[nH]c2ccccc12)N[*:1]; X4 = CCCC[C@@H](C(=O)[*:2])n1nnnc1[C@H](Cc1csc2ccccc12)N[*:1]; Morpholine(3S-CO) = O=C(O)[C@@H]1COCCN1; Bta = N[C@@H](Cc1csc2ccccc12)C(=O)O; Hyp = O=C(O)[C@@H]1C[C@@H](O)CN1; NMeNle = CCCC[C@H](NC)C(=O)O; NMeA = CN[C@@H](C)C(=O)O; Orn = NCCC[C@H](N)C(=O)O; Dab = NCC[C@H](N)C(=O)O; Dap = NC[C@H](N)C(=O)O
Target: T1, PD-1-Ig/PD-L1-His (Homo sapiens, UniProt Q9NZQ7)
T1 construct: [hPD-L1(19-239)-tobacco vein mottling virus protease cleavage site (TVMV)-His]; made in house; host or cells: HEK293T cells
Assay: PD-1/PD-L1 Homogenous Time-Resolved Fluorescence (HTRF) binding assay
Details: inhibition of PD-1-Ig binding to PD-L1-TVMV-His; numeric values
Source text: The ability of the macrocyclic peptides of the present disclosure to bind to PD-L1 was investigated using a PD-1/PD-L1 Homogenous Time-Resolved Fluorescence (HTRF) binding assay.
Homogenous Time-Resolved Fluorescence (HTRF) Assays of Binding of Soluble PD-1 to Soluble PD-L1. Soluble PD-1 and soluble PD-L1 refers to proteins with carboxyl-end truncations that remove the transmembrane-spanning regions and are fused to heterologous sequences, specifically the Fc portion of the human immunoglobuling G sequence (Ig) or the hexahistidine epitope tag (SEQ ID NO: 3) (His). All binding studies were performed in an HTRF assay buffer consisting of dPBS supplemented with 0.1% (w/v) bovine serum albumin and 0.05% (v/v) Tween-20. For the PD-1-Ig/PD-L1-His binding assay, inhibitors were pre-incubated with PD-L1-His (10 nM final) for 15 m in 4 μl of assay buffer, followed by addition of PD-1-Ig (20 nM final) in 1 μl of assay buffer and further incubation for 15 m. PD-L1 fusion proteins from either human, cynomologous macaques, mouse, or other species were used. HTRF detection was achieved using europium crypate-labeled anti-Ig monoclonal antibody (1 nM final) and allophycocyanin (APC) labeled anti-His monoclonal antibody (20 nM final). Antibodies were diluted in HTRF detection buffer and 5 μl was dispensed on top of binding reaction. The reaction was allowed to equilibrate for 30 minutes and signal (665 nm/620 nm ratio) was obtained using an EnVision fluorometer. Additional binding assays were established between PD-1-Ig/PD-L2-His (20 and 5 nM, respectively), CD80-His/PD-L1-Ig (100 and 10 nM, respectively) and CD80-His/CTLA4-Ig (10 and 5 nM, respectively). Binding/competition studies between biotinylated Compound No. 71 and human PD-L1-His were performed as follows. Macrocyclic peptide inhibitors were pre-incubated with PD-L1-His (10 nM final) for 60 minutes in 4 μl of assay buffer followed by addition of biotinylated Compound No. 71 (0.5 nM final) in 1 μl of assay buffer. Binding was allowed to equilibrate for 30 minutes followed by addition of europium crypated labeled Streptavidin (2.5 pM final) and APC-labeled anti-His (20 nM final) in 5 μl of HTRF buffer. The reaction was allowed to equilibrate for 30 m and signal (665 nm/620 nm ratio) was obtained using an EnVision fluorometer.
Recombinant Proteins. Carboxyl-truncated human PD-1 (amino acids 25-167) with a C-terminal human Ig epitope tag [hPD-1 (25-167)-3S-IG] and human PD-L1 (amino acids 18-239) with a C-terminal His epitope tag [hPD-L1(19-239)-tobacco vein mottling virus protease cleavage site (TVMV)-His] were expressed in HEK293T cells and purified sequentially by recombinant Protein A affinity chromatography and size exclusion chromatography. Human PD-L2-His (Sino Biologicals), CD80-His (Sino Biologicals), CTLA4-Ig (RnD Systems) were all obtained through commercial sources.

T1 sequence (Q9NZQ7 with tags, fused parts or gaps): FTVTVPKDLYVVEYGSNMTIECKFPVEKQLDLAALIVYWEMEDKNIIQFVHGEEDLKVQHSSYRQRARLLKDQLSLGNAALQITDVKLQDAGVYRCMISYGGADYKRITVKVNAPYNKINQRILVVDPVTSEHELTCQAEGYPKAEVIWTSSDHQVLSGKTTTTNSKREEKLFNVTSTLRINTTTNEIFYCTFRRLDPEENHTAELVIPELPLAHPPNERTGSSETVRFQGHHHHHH

IC50 | SMILES
200 nM | CCCC[C@H]1C(=O)N(C)[C@@H](CCCC)C(=O)N[C@@H](CCCNC(=N)N)C(=O)N[C@H](C(=O)NCC(N)=O)CSCC(=O)N[C@@H](Cc2ccccc2)c2nnnn2[C@@H](C)C(=O)N[C@@H](CC(N)=O)C(=O)N2CCC[C@H]2C(=O)N[C@@H](Cc2cnc[nH]2)C(=O)N[C@@H](CC(C)C)C(=O)N(C)CC(=O)N[C@@H](Cc2c[nH]c3ccccc23)C(=O)N[C@@H](CO)C(=O)N[C@@H](Cc2c[nH]c3ccccc23)C(=O)N1C (single isomer, unassigned) [Example 1002]

Same assay, conditions: inhibition of PD-1-Ig binding to PD-L1-TVMV-His; range classes

SMILES | IC50
CCCC[C@H]1C(=O)N[C@@H](CCC(=O)O)C(=O)N[C@H](C(=O)NCC(N)=O)CSCC(=O)N[C@@H](Cc2ccc(O)cc2)C(=O)N(C)[C@@H](C)C(=O)N[C@@H](CC(=O)O)C(=O)N2CCC[C@H]2C(=O)N[C@@H](CN)C(=O)N[C@@H](CCC(=O)O)C(=O)N2C[C@H](O)C[C@H]2C(=O)N[C@@H](Cc2c[nH]c3ccccc23)C(=O)N[C@@H](CO)C(=O)N[C@@H](Cc2c[nH]c3ccccc23)c2nnnn2[C@@H](CCCC)C(=O)N1C [Example 1101] ({CH2CO}-Y[NMeA]DP[Dap]E[Hyp]WS[X1][NMeNle]ECG-NH2; thioether N-13) | 100 to 10000 nM
CCCC[C@H]1C(=O)N[C@@H](CN)C(=O)N[C@H](C(=O)NCC(N)=O)CSCC(=O)N[C@@H](Cc2ccc(O)cc2)C(=O)N(C)[C@@H](C)C(=O)N[C@@H](CC(=O)O)C(=O)N2CCC[C@H]2C(=O)N[C@@H](CN)C(=O)N[C@@H](CCC(=O)O)C(=O)N2C[C@H](O)C[C@H]2C(=O)N[C@@H](Cc2c[nH]c3ccccc23)C(=O)N[C@@H](CO)C(=O)N[C@@H](Cc2cccc3ccccc23)c2nnnn2[C@@H](CCCC)C(=O)N1C [Example 1109] | 10 to 99 nM
CCCC[C@H]1C(=O)N[C@@H](CCC(=O)O)C(=O)N[C@H](C(=O)NCC(N)=O)CSCC(=O)N[C@@H](Cc2ccc(O)cc2)C(=O)N2CCOC[C@H]2C(=O)N[C@@H](CC(N)=O)C(=O)N2CCC[C@H]2C(=O)N[C@@H](CN)C(=O)N[C@@H](CC(C)C)C(=O)N2C[C@H](O)C[C@H]2C(=O)N[C@@H](Cc2c[nH]c3ccccc23)C(=O)N[C@@H](CO)C(=O)N[C@@H](Cc2c[nH]c3ccccc23)c2nnnn2[C@@H](CCCC)C(=O)N1C [Example 1053] ({CH2CO}-Y[Morpholine(3S-CO)]NP[Dap]L[Hyp]WS[X1][NMeNle]ECG-NH2; thioether N-13) | 10 to 99 nM
CCCC[C@H]1C(=O)N[C@@H](CCCN)C(=O)N[C@H](C(=O)NCC(N)=O)CSCC(=O)N[C@@H](Cc2ccc(O)cc2)C(=O)N(C)[C@@H](C)C(=O)N[C@@H](CC(N)=O)C(=O)N2CCC[C@H]2C(=O)N[C@@H](Cc2cnc[nH]2)C(=O)N[C@@H](CC(C)C)C(=O)N2C[C@H](O)C[C@H]2C(=O)N[C@@H](Cc2c[nH]c3ccccc23)C(=O)N[C@@H](CO)C(=O)N[C@@H](Cc2c[nH]c3ccccc23)c2nnnn2[C@@H](CCCC)C(=O)N1C [Example 1050] ({CH2CO}-Y[NMeA]NPHL[Hyp]WS[X1][NMeNle][Orn]CG-NH2; thioether N-13) | 100 to 10000 nM
CCCC[C@H]1C(=O)N(C)[C@@H](CCCC)C(=O)N[C@@H](CCCN)C(=O)N[C@H](C(=O)NCC(N)=O)CSCC(=O)N[C@@H](Cc2ccc(O)cc2)c2nnnn2[C@@H](C)C(=O)N[C@@H](CC(N)=O)C(=O)N2CCC[C@H]2C(=O)N[C@@H](CN)C(=O)N[C@@H](CC(C)C)C(=O)N2C[C@H](O)C[C@H]2C(=O)N[C@@H](Cc2c[nH]c3ccccc23)C(=O)N[C@@H](CO)C(=O)N[C@@H](Cc2c[nH]c3ccccc23)C(=O)N1C [Example 1014] ({CH2CO}-[Tyrψ(CN4)Ala]NP[Dap]L[Hyp]WSW[NMeNle][NMeNle][Orn]CG-NH2; thioether N-13) | 5 to 9.9 nM
CCCC[C@H]1C(=O)N(C)[C@@H](CCCC)C(=O)N[C@@H](C)C(=O)N[C@H](C(=O)NCC(=O)O)CSCC(=O)N[C@@H](Cc2ccc(O)cc2)c2nnnn2[C@@H](C)C(=O)N[C@@H](CC(=O)O)C(=O)N2CCC[C@H]2C(=O)N[C@@H](Cc2c[nH]cn2)C(=O)N[C@@H](CCC(N)=O)C(=O)N2C[C@H](O)C[C@H]2C(=O)N[C@@H](Cc2c[nH]c3ccccc23)C(=O)N[C@@H](CO)C(=O)N[C@@H](Cc2csc3ccccc23)C(=O)N1C [Example 1110] ({CH2CO}-[Tyrψ(CN4)Ala]DPHQ[Hyp]WS[Bta][NMeNle][NMeNle]ACG-OH; thioether N-13) | 100 to 10000 nM

Continued, values first:

IC50 | SMILES
100 to 10000 nM | CCCCC1C(=O)N(C)[C@@H](CCCC)C(=O)N[C@@H](CCCNC(=N)N)C(=O)N[C@H](C(=O)NCC(N)=O)CSCC(=O)N[C@@H](Cc2ccccc2)c2nnnn2[C@@H](C)C(=O)N[C@@H](CC(N)=O)C(=O)N2CCC[C@H]2C(=O)N[C@@H](Cc2cnc[nH]2)C(=O)N[C@@H](CC(C)C)C(=O)N(C)CC(=O)N[C@@H](Cc2c[nH]c3ccccc23)C(=O)N[C@@H](CO)C(=O)N[C@@H](Cc2cccc3ccccc23)c2nnnn21 (stereo partly drawn) [Example 1007]
10 to 99 nM | CCCC[C@H]1C(=O)N[C@@H](CCCN)C(=O)N[C@H](C(=O)NCC(N)=O)CSCC(=O)N[C@@H](Cc2ccc(O)cc2)C(=O)N(C)[C@@H](C)C(=O)N[C@@H](CC(N)=O)C(=O)N2CCC[C@H]2C(=O)N[C@@H](Cc2cnc[nH]2)C(=O)N[C@@H](CC(C)C)C(=O)N2C[C@H](O)C[C@H]2C(=O)N[C@@H](Cc2c[nH]c3ccccc23)C(=O)C[C@@H](CO)C(=O)N[C@@H](Cc2csc3ccccc23)c2nnnn2[C@@H](CCCC)C(=O)N1C [Example 1013] ({CH2CO}-Y[NMeA]NPHL[Hyp][X3][X4][NMeNle][Orn]CG-NH2; thioether N-12)
100 to 10000 nM | CCCC[C@H]1C(=O)N(C)[C@@H](CCCC)C(=O)N[C@@H](CCC(=O)O)C(=O)N[C@H](C(=O)NCC(N)=O)CSCC(=O)N[C@@H](Cc2ccc(O)cc2)c2nnnn2[C@@H](C)C(=O)N[C@@H](CC(=O)O)C(=O)N2CCC[C@H]2C(=O)N[C@@H](CN)C(=O)N[C@@H](CCC(=O)O)C(=O)N2C[C@H](O)C[C@H]2C(=O)N[C@@H](Cc2c[nH]c3ccccc23)C(=O)N[C@@H](CCN)C(=O)N[C@@H](Cc2c[nH]c3ccccc23)C(=O)N1C [Example 1056] ({CH2CO}-[Tyrψ(CN4)Ala]DP[Dap]E[Hyp]W[Dab]W[NMeNle][NMeNle]ECG-NH2; thioether N-13)
100 to 10000 nM | CCCC[C@@H]1C(=O)N[C@@H](CCCNC(=N)N)C(=O)N[C@H](C(=O)NCC(N)=O)CSCC(=O)N[C@@H](Cc2ccccc2)c2cnnn2[C@@H](C)C(=O)N[C@H](CC(N)=O)C(=O)N2CCC[C@H]2C(=O)N[C@@H](Cc2cnc[nH]2)C(=O)N[C@@H](CC(C)C)C(=O)N(C)CC(=O)N[C@@H](Cc2c[nH]c3ccccc23)C(=O)N[C@@H](CO)C(=O)N[C@@H](Cc2c[nH]c3ccccc23)C(=O)N(C)[C@@H](CCCC)C(=O)N1C (single isomer, unassigned) [Example 1003]

System: not given
Assay: not given
Details: oral administration, extensive first-pass metabolism in the liver; cited from earlier work

SMILES | bioavailability
CCCC1O[C@@H]2C[C@H]3[C@@H]4CCC5=CC(=O)C=C[C@]5(C)[C@H]4[C@@H](O)C[C@]3(C)[C@]2(C(=O)CO)O1 (stereo partly drawn) [budesonide] | about 10%
